Data from ChEMBL document CHEMBL1201862, “PubChem BioAssay data set” (2004).
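Five concentrations, 48 hours, 96-well plates. Here, GI50 denotes the concentration required for 50% inhibition of growth.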 Activity calls are given as the source filed them. Rule as the data show it: active = GI50 up to about 1.1 µM and inactive = higher.

What was measured:
Assay in all cases: inhibition of tumour cell growth, NCI panel, 48 h
[1] = tested on: IGROV-1
[2] = tested on: UACC-257
[3] = tested on: CAKI-1
[4] = tested on: COLO 205
[5] = tested on: KM12
[6] = tested on: SF-539
[7] = tested on: Malme-3M
[8] = tested on: SK-MEL-2
[9] = tested on: SK-MEL-5
[10] = tested on: MOLT-4
[11] = tested on: SW-620
[12] = tested on: Hs-578T
[13] = tested on: OVCAR-3
[14] = tested on: 786-0
[15] = tested on: SK-MEL-28
[16] = tested on: RPMI-8226
[17] = tested on: UACC-62
[18] = tested on: SK-OV-3
[19] = tested on: NCI-H23

Structure (SMILES) | GI50 [1] | GI50 [2] | GI50 [3] | GI50 [4] | GI50 [5] | GI50 [6] | GI50 [7] | GI50 [8] | GI50 [9] | GI50 [10] | GI50 [11] | GI50 [12] | GI50 [13] | GI50 [14] | GI50 [15] | GI50 [16] | GI50 [17] | GI50 [18] | GI50 [19]
Brc1c(C#CCC2CCCCC2)ccc(C#CCC2CCCCC2)c1Br | > 100 µM (inactive) | > 100 µM (inactive) | > 100 µM (inactive) | > 100 µM (inactive) | > 100 µM (inactive) | > 100 µM (inactive) | > 100 µM (inactive) | > 100 µM (inactive) | > 100 µM (inactive) | > 100 µM (inactive) | > 100 µM (inactive) | > 100 µM (inactive) | > 100 µM (inactive) | > 100 µM (inactive) | > 100 µM (inactive) | > 100 µM (inactive) | > 100 µM (inactive) | – | –
COC1=C(OC)C(=O)C(Cc2c(C)nc3sccn23)=C(C)C1=O | 22.4 µM (inactive) | 5.65 µM (inactive) | 17.9 µM (inactive) | 12.6 µM (inactive) | 15.2 µM (inactive) | 16.5 µM (inactive) | 10.9 µM (inactive) | 16.6 µM (inactive) | 4.68 µM (inactive) | 2.01 µM (inactive) | 14.8 µM (inactive) | 19.3 µM (inactive) | 15 µM (inactive) | 19.1 µM (inactive) | 11 µM (inactive) | 2.48 µM (inactive) | 10.6 µM (inactive) | 13.7 µM (inactive) | 10.9 µM (inactive)
CC(=O)n1[nH]c(=O)n(-c2ccccc2)c1=O | > 100 µM (inactive) | > 100 µM (inactive) | > 100 µM (inactive) | > 100 µM (inactive) | > 100 µM (inactive) | – | > 100 µM (inactive) | > 100 µM (inactive) | > 100 µM (inactive) | > 100 µM (inactive) | > 100 µM (inactive) | > 100 µM (inactive) | > 100 µM (inactive) | > 100 µM (inactive) | > 100 µM (inactive) | > 100 µM (inactive) | > 100 µM (inactive) | > 100 µM (inactive) | > 100 µM (inactive)
N#Cc1c(-c2ccc([N+](=O)[O-])cc2)c(C#N)c(=O)n(NS(=O)(=O)c2ccccc2)c1S | 19.2 µM (inactive) | 99.8 µM (inactive) | 66.4 µM (inactive) | 46.5 µM (inactive) | 25.3 µM (inactive) | 20 µM (inactive) | 48.1 µM (inactive) | 19.2 µM (inactive) | 10.8 µM (inactive) | 17.5 µM (inactive) | 22.1 µM (inactive) | 20.8 µM (inactive) | – | 32.1 µM (inactive) | 61.9 µM (inactive) | 20.5 µM (inactive) | 20.7 µM (inactive) | 79.8 µM (inactive) | –
O=C(Nc1ccccc1)c1cc2c(cc1Cl)Sc1nccn1S2(=O)=O | 20.2 µM (inactive) | 18.7 µM (inactive) | 0.266 µM (active) | 15.3 µM (inactive) | 18.6 µM (inactive) | 23 µM (inactive) | 30.1 µM (inactive) | 28.6 µM (inactive) | 12.9 µM (inactive) | 15.6 µM (inactive) | 21.1 µM (inactive) | 22.8 µM (inactive) | 21.4 µM (inactive) | 21.2 µM (inactive) | 18 µM (inactive) | 19.8 µM (inactive) | 17.6 µM (inactive) | 76.4 µM (inactive) | 18.4 µM (inactive)
CO/C(N)=C(C#N)/N=C/c1ccc2ccccc2c1 | 43.6 µM (inactive) | 7.52 µM (inactive) | 39.1 µM (inactive) | 17.9 µM (inactive) | 23.1 µM (inactive) | – | > 100 µM (inactive) | 31.1 µM (inactive) | 13 µM (inactive) | 30.6 µM (inactive) | > 100 µM (inactive) | 46.7 µM (inactive) | 24.2 µM (inactive) | 78.5 µM (inactive) | > 100 µM (inactive) | 17.1 µM (inactive) | 3.06 µM (inactive) | 82.6 µM (inactive) | > 100 µM (inactive)
O=C(CCCc1cccc2[nH]c3c(c12)CN(Cc1ccccc1)CC3)c1ccc(F)cc1 | > 100 µM (inactive) | 2.61 µM (inactive) | > 100 µM (inactive) | 14.4 µM (inactive) | 39.1 µM (inactive) | > 47.8 µM (inactive) | 40.9 µM (inactive) | > 100 µM (inactive) | 18.2 µM (inactive) | 15.3 µM (inactive) | 83.2 µM (inactive) | 99.5 µM (inactive) | > 100 µM (inactive) | > 52.5 µM (inactive) | > 100 µM (inactive) | 12.8 µM (inactive) | 49.1 µM (inactive) | > 47.1 µM (inactive) | 16.3 µM (inactive)
Cc1ccc(S(=O)(=O)NNCNC(=O)c2ccccc2)cc1 | > 100 µM (inactive) | > 100 µM (inactive) | > 100 µM (inactive) | > 100 µM (inactive) | 85.1 µM (inactive) | > 100 µM (inactive) | > 100 µM (inactive) | > 100 µM (inactive) | > 100 µM (inactive) | 24.2 µM (inactive) | 94.8 µM (inactive) | > 100 µM (inactive) | > 100 µM (inactive) | > 100 µM (inactive) | > 100 µM (inactive) | 76 µM (inactive) | 71.6 µM (inactive) | > 100 µM (inactive) | > 100 µM (inactive)
Cc1ccc2nc(NC(=O)C(=O)C3C(=O)NC(=S)NC3=O)sc2c1 | 49.4 µM (inactive) | > 100 µM (inactive) | > 100 µM (inactive) | – | > 100 µM (inactive) | > 100 µM (inactive) | 55.6 µM (inactive) | > 100 µM (inactive) | > 100 µM (inactive) | > 100 µM (inactive) | > 100 µM (inactive) | > 100 µM (inactive) | > 100 µM (inactive) | > 100 µM (inactive) | > 100 µM (inactive) | > 100 µM (inactive) | > 100 µM (inactive) | > 100 µM (inactive) | > 100 µM (inactive)
COc1cc(OC)cc(OCc2ccc3nc(-c4ccccc4)c(Cl)nc3c2)c1 | 21.1 µM (inactive) | > 100 µM (inactive) | 11.5 µM (inactive) | 25.2 µM (inactive) | 58.3 µM (inactive) | 18.4 µM (inactive) | 11 µM (inactive) | 35.6 µM (inactive) | 14.5 µM (inactive) | 25.9 µM (inactive) | 59.8 µM (inactive) | 27.3 µM (inactive) | > 100 µM (inactive) | 9.89 µM (inactive) | > 100 µM (inactive) | 33.4 µM (inactive) | 32.4 µM (inactive) | – | 17.3 µM (inactive)
O=C(Nc1nnc(-c2ccccc2)o1)C(SC(=S)N1CCOCC1)c1ccccc1 (stereo not given) | 35.7 µM (inactive) | 35.6 µM (inactive) | 30.2 µM (inactive) | 35.6 µM (inactive) | 34.3 µM (inactive) | 33.3 µM (inactive) | 55.6 µM (inactive) | 16.8 µM (inactive) | 15.7 µM (inactive) | 7.98 µM (inactive) | 42.5 µM (inactive) | 86.3 µM (inactive) | 15 µM (inactive) | 17.9 µM (inactive) | 46.9 µM (inactive) | 22.6 µM (inactive) | – | 42.9 µM (inactive) | 18.9 µM (inactive)
C=CC(O)(CBr)CCC(Br)C(C)(C)Cl (stereo not given) | > 10 µM (inactive) | > 10 µM (inactive) | > 10 µM (inactive) | > 10 µM (inactive) | > 10 µM (inactive) | > 10 µM (inactive) | > 10 µM (inactive) | > 10 µM (inactive) | > 10 µM (inactive) | > 10 µM (inactive) | > 10 µM (inactive) | > 10 µM (inactive) | > 10 µM (inactive) | > 10 µM (inactive) | > 10 µM (inactive) | > 10 µM (inactive) | – | > 10 µM (inactive) | > 10 µM (inactive)
CC(C)(C)OC(=O)N1[C@@H]2Cc3ccc(N)cc3[C@@]1(C)c1ccccc12 | 46.7 µM (inactive) | 27.2 µM (inactive) | 45.2 µM (inactive) | – | 33 µM (inactive) | – | 29.9 µM (inactive) | 20 µM (inactive) | 0.9 µM (active) | 19 µM (inactive) | 29.7 µM (inactive) | 36.6 µM (inactive) | 20.8 µM (inactive) | 19.1 µM (inactive) | – | 21.8 µM (inactive) | 20.6 µM (inactive) | 34 µM (inactive) | 19.3 µM (inactive)
O=c1/c(=C/c2ccc([N+](=O)[O-])o2)sc2n1[C@@H](c1ccc(Cl)cc1)C=C(c1cc(F)c(Cl)cc1Cl)N=2 | 15.8 µM (inactive) | 15.4 µM (inactive) | 28.7 µM (inactive) | 3.94 µM (inactive) | 24.5 µM (inactive) | 22.4 µM (inactive) | 17.9 µM (inactive) | 5.04 µM (inactive) | 13.9 µM (inactive) | 12.9 µM (inactive) | 4.91 µM (inactive) | 56.5 µM (inactive) | – | 4.71 µM (inactive) | 24.2 µM (inactive) | 5.16 µM (inactive) | 14.8 µM (inactive) | 14.8 µM (inactive) | 15.3 µM (inactive)
COC(=O)C1C=CN(N(C)C)C2=C1C(=O)c1c(O)cccc1C2=O (stereo not given) | 2.1 µM (inactive) | 1.41 µM (inactive) | 2.47 µM (inactive) | 1.5 µM (inactive) | 2.07 µM (inactive) | – | 1.53 µM (inactive) | 2.31 µM (inactive) | 0.54 µM (active) | 2.56 µM (inactive) | 2.28 µM (inactive) | 2.69 µM (inactive) | 0.625 µM (active) | 2.62 µM (inactive) | 1.94 µM (inactive) | 0.887 µM (active) | 1.04 µM (active) | 6.19 µM (inactive) | 1.63 µM (inactive)
